In PubChem BioAssay (NCI):
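Step 1: Grow cells in 96-well plates. Step 2: Expose to compound for 48 hours at 5 concentrations. Step 3: Interpolate endpoints linearly; if unreached, use highest concentration. Abbreviation: GI50, concentration required for 50% inhibition of growth. TGI: total growth inhibition.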

Legend:
Test in all cases: NCI tumour cell line growth inhibition, 48 h
COLO 205 colon = tested on: COLO 205 colon
OVCAR-5 ovarian = tested on: OVCAR-5 ovarian
RXF 393 renal = tested on: RXF 393 renal
SF-539 CNS = tested on: SF-539 CNS
SK-MEL-28 melanoma = tested on: SK-MEL-28 melanoma
SK-MEL-5 melanoma = tested on: SK-MEL-5 melanoma
UACC-257 melanoma = tested on: UACC-257 melanoma
HS 578T breast = tested on: HS 578T breast
NCI/ADR-RES ovarian = tested on: NCI/ADR-RES ovarian
MDA-MB-435 = tested on: MDA-MB-435

`c1ccc(P(=Nc2ccccc2N=P(c2ccccc2)(c2ccccc2)c2ccccc2)(c2ccccc2)c2ccccc2)cc1` gave a TGI (COLO 205 colon) of 3.04 µM, a TGI (OVCAR-5 ovarian) of 7.53 µM and a TGI (RXF 393 renal) of 9 µM. For the same molecule, the TGI (SF-539 CNS) was 10.4 µM, the TGI (SK-MEL-28 melanoma) was > 100 µM and the TGI (SK-MEL-5 melanoma) was 1.95 µM. For the same molecule, the TGI (UACC-257 melanoma) was 12.5 µM.

`COC(=O)C(C)(C)N=CN(C)C` was tested, and the TGI (COLO 205 colon) was > 100 µM, the TGI (OVCAR-5 ovarian) was > 100 µM and the TGI (RXF 393 renal) was > 100 µM. The TGI (SF-539 CNS) was > 100 µM, the TGI (SK-MEL-28 melanoma) was > 100 µM and the TGI (SK-MEL-5 melanoma) was > 100 µM. The TGI (UACC-257 melanoma) was > 100 µM.

With `O=C(NC1CCCC1=O)c1ccccc1` (configuration not stated) the TGI (OVCAR-5 ovarian) was > 100 µM, the TGI (RXF 393 renal) was > 100 µM and the TGI (SF-539 CNS) was > 100 µM. The TGI (SK-MEL-28 melanoma) was > 100 µM, the TGI (SK-MEL-5 melanoma) was > 100 µM and the TGI (UACC-257 melanoma) was > 100 µM.

In the case of `CC1(C)OCC(C(O)C2OC(C)(C)OC2/C=N\O)O1` (configuration not stated), the TGI (COLO 205 colon) is reported as > 100 µM, the TGI (OVCAR-5 ovarian) is reported as > 100 µM and the TGI (RXF 393 renal) is reported as > 100 µM. The TGI (SF-539 CNS) was > 100 µM, the TGI (SK-MEL-28 melanoma) was > 100 µM and the TGI (SK-MEL-5 melanoma) was > 100 µM. For the same molecule, the TGI (UACC-257 melanoma) was > 100 µM.

In the case of `CNS(=O)(=O)NNS(=O)(=O)c1ccc(Cl)cc1`, the TGI (COLO 205 colon) is reported as > 100 µM, the TGI (OVCAR-5 ovarian) is reported as > 100 µM and the TGI (RXF 393 renal) is reported as > 100 µM. For the same molecule, the TGI (SF-539 CNS) was > 100 µM, the TGI (SK-MEL-28 melanoma) was > 100 µM and the TGI (SK-MEL-5 melanoma) was > 100 µM. For the same molecule, the TGI (UACC-257 melanoma) was > 100 µM.

With `Cc1ccc(S(=O)OC2C3CC4CC(C3)CC2C4)cc1` (configuration not stated) the TGI (COLO 205 colon) was > 100 µM, the TGI (OVCAR-5 ovarian) was > 100 µM and the TGI (RXF 393 renal) was > 100 µM. The TGI (SF-539 CNS) was > 100 µM, the TGI (SK-MEL-28 melanoma) was > 100 µM and the TGI (SK-MEL-5 melanoma) was > 100 µM. The TGI (UACC-257 melanoma) was > 100 µM.

`CN(C)c1ccc(/C=C2\C=Cc3ccccc32)cc1` was tested, and the TGI (COLO 205 colon) was > 100 µM, the TGI (OVCAR-5 ovarian) was > 100 µM and the TGI (RXF 393 renal) was 84.4 µM. For the same molecule, the TGI (SF-539 CNS) was > 100 µM, the TGI (SK-MEL-28 melanoma) was > 100 µM and the TGI (SK-MEL-5 melanoma) was > 100 µM.

`Cc1cc(N(CCC#N)CCC#N)ccc1/C=C1N=C(/C=C\c2ccccc2)N(c2ccc(Cl)cc2)C\1=O` was tested, and the TGI (COLO 205 colon) was 5.06 µM, the TGI (HS 578T breast) was > 100 µM and the TGI (NCI/ADR-RES ovarian) was > 100 µM. The TGI (OVCAR-5 ovarian) was > 100 µM, the TGI (RXF 393 renal) was > 100 µM and the TGI (SF-539 CNS) was > 100 µM. The TGI (SK-MEL-28 melanoma) was > 100 µM, the TGI (SK-MEL-5 melanoma) was 17.5 µM and the TGI (UACC-257 melanoma) was > 100 µM.

For `CCCCCCN(N)C(=O)CC#N`, the TGI (COLO 205 colon) was > 100 µM, the TGI (OVCAR-5 ovarian) was > 100 µM and the TGI (RXF 393 renal) was 94.8 µM. The TGI (SF-539 CNS) was > 100 µM, the TGI (SK-MEL-28 melanoma) was > 100 µM and the TGI (SK-MEL-5 melanoma) was > 100 µM. The TGI (UACC-257 melanoma) was > 100 µM.

With `CC1CN1c1c(C(=O)/C=C/c2ccccc2)c(-c2ccccc2)nn(C)c1=O` (configuration not stated) the TGI (COLO 205 colon) was 29.7 µM, the TGI (OVCAR-5 ovarian) was 37 µM and the TGI (RXF 393 renal) was 41.4 µM. It also gave a TGI (SF-539 CNS) of 30.7 µM, a TGI (SK-MEL-28 melanoma) of 47.5 µM and a TGI (SK-MEL-5 melanoma) of 29.4 µM. The TGI (UACC-257 melanoma) was 36.4 µM.

For `N/N=C1\CC(=O)NC(=O)N1`, the TGI (COLO 205 colon) was > 100 µM, the TGI (HS 578T breast) was > 100 µM and the TGI (MDA-MB-435) was > 100 µM. The TGI (NCI/ADR-RES ovarian) was > 100 µM, the TGI (OVCAR-5 ovarian) was > 100 µM and the TGI (RXF 393 renal) was > 100 µM. For the same molecule, the TGI (SK-MEL-28 melanoma) was > 100 µM, the TGI (SK-MEL-5 melanoma) was > 100 µM and the TGI (UACC-257 melanoma) was > 100 µM.

`Fc1cccc(C2SCc3nc4ccccc4n32)c1F` (configuration not stated) was tested, and the TGI (COLO 205 colon) was > 100 µM, the TGI (OVCAR-5 ovarian) was > 100 µM and the TGI (RXF 393 renal) was > 100 µM. For the same molecule, the TGI (SF-539 CNS) was > 100 µM, the TGI (SK-MEL-5 melanoma) was 53.2 µM and the TGI (UACC-257 melanoma) was > 100 µM.

`N#Cc1ccc(N=Cc2c([O-])ccc3ccccc23)cc1.[C-]#[O+].[C-]#[O+].[Ir]` gave a GI50 (COLO 205 colon) of 1.96 µM, a TGI (COLO 205 colon) of 4 µM and a GI50 (OVCAR-5 ovarian) of 21.7 µM. For the same molecule, the TGI (OVCAR-5 ovarian) was 36.5 µM, the GI50 (SF-539 CNS) was 15.2 µM and the TGI (SF-539 CNS) was 29.2 µM. For the same molecule, the GI50 (SK-MEL-28 melanoma) was 10.4 µM, the TGI (SK-MEL-28 melanoma) was 22.1 µM and the GI50 (SK-MEL-5 melanoma) was 13.4 µM. The TGI (SK-MEL-5 melanoma) was 26.2 µM, the GI50 (UACC-257 melanoma) was 10.6 µM and the TGI (UACC-257 melanoma) was 29 µM.
